Laboratory results: US6664231B1, “Anti-fungal peptides” (priority 1993, dated 2003)
Where “and” joins values, the source holds several entries; their conditions need not be identical. Equal entries are not always repeated. Where two headings read alike, the source gives them in different places. Square brackets hold non-standard residues; d marks the D form. Peptide text beside a SMILES is read from it. Phe(4-NH2) = Nc1ccc(C[C@H](N)C(=O)O)cc1; d2Nal = N[C@H](Cc1ccc2ccccc2c1)C(=O)O; Dab = NCC[C@H](N)C(=O)O

Columns and labels:
[1] = tested on: mouse RAW 264.7 cells incubated with E. coli O113 LPS; conditions: RAW 264.7 cells with E. coli O113 LPS; concentration reversing LPS growth inhibition by 50%
Description: (§1) An in vitro LPS neutralization screening assay for evaluation of Domain III derived peptides was developed (as described in co-owned and co-pending U.S. patent application Ser. No. 08/306,473) which provides both a measure of efficacy of each peptide (EC50) and of the toxicity/growth inhibition of each peptide (IC50).
(§2) The cells were counted and their concentration adjusted to 2×10^5 cells/mL and 100 μL aliquots were added to each well of a 96-well microtitre plate. […] This incubation was performed in the absence or presence of peptides in varying concentrations between 25 ng/mL and 50 μg/mL. […] Cell proliferation was quantitatively measured by the addition of 1 μCi/well [^3H]-thymidine 5 hours after the time of initiation of the assay. After the 15-hour incubation, labeled cells were harvested onto glass fiber filters with a cell harvester (Inotech Biosystems, INB-384, Sample Processing and Filter Counting System, Lansing, Mich.).

mouse RAW 264.7 cells = tested on: mouse RAW 264.7 cells
Description: as §1, §2

[2] = tested on: C. albicans (CA-1, Strain SLU-1); assay: Radial diffusion assay; format: cell-based, Candida albicans; conditions: for C. albicans pmol/30 mm^2 zone: pmoles of peptide added to well to achieve a 30 mm^2 zone, PROBIT analysis, crude or purified (P′) peptide
Method in brief: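 Peptides, serially diluted 2-fold in D-PBS (top ~1 mg/mL), diffused 3 h at 37° C into pH 7.4 phosphate-buffered agarose seeded with 1×10^6 CFU/mL yeast, before overnight growth under a 6% Sabouraud overlayer. Net inhibition zones measured after Coomassie staining; PROBIT fit of log pmol vs area gave pmol for 30 mm^2.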

[3] = RAW 264.7 cell growth inhibited by 50%
[4] = nanomoles required to achieve a net 30 mm^2 zone (log titration curve)

| Compound | In Vitro LPS Neutralization EC50 [1] | IC50 (toxicity/growth inhibition of peptide) (mouse RAW 264.7 cells; [3]) | also measured |
| --- | --- | --- | --- |
| CC[C@H](C)[C@H](NC(=O)[C@H](CC(C)C)NC(=O)[C@H](Cc1c[nH]c2ccccc12)NC(=O)[C@H](CCCN)NC(=O)[C@@H](N)CCCN)C(=O)N[C@@H](CCC(N)=O)C(=O)N[C@@H](CC(C)C)C(=O)N[C@@H](CCCN)C(=O)N[C@@H](CCCN)C(N)=O [XMP 338] | >25 µg/mL | NA (NA for IC50 means no evidence of decreased RAW cell growth at up to 50 μg/ml) |  |
| CC[C@H](C)[C@H](NC(=O)[C@H](CC(C)C)NC(=O)[C@H](Cc1c[nH]c2ccccc12)NC(=O)[C@H](CCN)NC(=O)[C@@H](N)CCN)C(=O)N[C@@H](CCC(N)=O)C(=O)N[C@@H](CC(C)C)C(=O)N[C@@H](CCN)C(=O)N[C@@H](CCN)C(N)=O [XMP 339P] (H-[Dab][Dab]WLIQL[Dab][Dab]-NH2) | NA (NA for EC50 means no evidence neutralization of LPS at up to 50 μg/ml) | NA (NA for IC50 means no evidence of decreased RAW cell growth at up to 50 μg/ml) |  |
| CC[C@H](C)[C@H](NC(=O)[C@H](CC(C)C)NC(=O)[C@@H](N)Cc1c[nH]c2ccccc12)C(=O)N[C@@H](CCC(N)=O)C(=O)N[C@@H](CC(C)C)C(=O)N[C@@H](Cc1ccccc1)C(=O)N[C@@H](Cc1c[nH]cn1)C(=O)N[C@@H](CCCCN)C(N)=O [XMP.303P] | 11.79 ± 0.85 µg/mL | NA (NA for IC50 means no evidence of decreased RAW cell growth at up to 50 μg/ml) |  |
| CC[C@H](C)[C@H](NC(=O)[C@H](CC(C)C)NC(=O)[C@H](Cc1c[nH]c2ccccc12)NC(=O)[C@H](CCCCN)NC(=O)[C@H]1CCCN1)C(=O)N[C@@H](CCC(N)=O)C(=O)N[C@@H](CC(C)C)C(=O)N[C@@H](CCCCN)C(=O)N[C@@H](CCCCN)C(N)=O [XMP.334P] | NA (NA for EC50 means no evidence neutralization of LPS at up to 50 μg/ml) | NA (NA for IC50 means no evidence of decreased RAW cell growth at up to 50 μg/ml) |  |
| CC[C@H](C)[C@H](NC(=O)[C@H](CC(C)C)NC(=O)[C@H](Cc1c[nH]c2ccccc12)NC(=O)[C@H](CCCCN)NC(=O)[C@@H]1CCCN1)C(=O)N[C@@H](CCC(N)=O)C(=O)N[C@@H](CC(C)C)C(=O)N[C@@H](CCCCN)C(=O)N[C@@H](CCCCN)C(N)=O [XMP.335P] | NA (NA for EC50 means no evidence neutralization of LPS at up to 50 μg/ml) | NA (NA for IC50 means no evidence of decreased RAW cell growth at up to 50 μg/ml) |  |
| CC[C@H](C)[C@H](NC(=O)[C@H](CC(C)C)NC(=O)[C@H](Cc1c[nH]c2ccccc12)NC(=O)[C@H](Cc1ccc(N)cc1)NC(=O)[C@@H](N)Cc1ccc(N)cc1)C(=O)N[C@@H](CCC(N)=O)C(=O)N[C@@H](CC(C)C)C(=O)N[C@@H](Cc1ccc(N)cc1)C(=O)N[C@@H](Cc1ccc(N)cc1)C(N)=O [XMP.340P] (H-[Phe(4-NH2)][Phe(4-NH2)]WLIQL[Phe(4-NH2)][Phe(4-NH2)]-NH2) | >50 µg/mL | NA (NA for IC50 means no evidence of decreased RAW cell growth at up to 50 μg/ml) |  |
| CC[C@H](C)[C@H](NC(=O)[C@H](CC(C)C)NC(=O)[C@@H](Cc1ccc2ccccc2c1)NC(=O)[C@H](CCCCN)NC(=O)[C@@H](N)CCCCN)C(=O)N[C@@H](CC(C)C)C(=O)N[C@@H](CC(C)C)C(=O)N[C@@H](CCCCN)C(=O)N[C@@H](CCCCN)C(N)=O [XMP.347P] (H-KK[d2Nal]LILLKK-NH2) | 1.65 ± 0.09 µg/mL |  | IC50 (toxicity/growth inhibition of peptide) (mouse RAW 264.7 cells): >25 µg/mL |
| CC[C@H](C)[C@H](NC(=O)[C@H](CC(C)C)NC(=O)[C@H](Cc1c[nH]c2ccccc12)NC(=O)[C@H](N)CS)C(=O)N[C@@H](CCC(N)=O)C(=O)N[C@@H](CC(C)C)C(=O)N[C@@H](Cc1ccccc1)C(=O)N[C@@H](Cc1c[nH]cn1)C(=O)N[C@@H](CCCCN)C(=O)N[C@@H](CCCCN)C(N)=O [XMP.359P] (H-[dC]WLIQLFHKK-NH2; N-terminus assumed) | 7.31 ± 1.26 µg/mL |  | IC50 (toxicity/growth inhibition of peptide) (mouse RAW 264.7 cells): >25 µg/mL |
| CC[C@H](C)[C@H](NC(=O)[C@H](CC(C)C)NC(=O)[C@@H](Cc1c[nH]c2ccccc12)NC(=O)[C@H](N)CCCCN)C(=O)N[C@@H](CCC(N)=O)C(=O)N[C@@H](CC(C)C)C(=O)N[C@@H](Cc1ccccc1)C(=O)N[C@@H](Cc1c[nH]cn1)C(=O)N[C@H](CCCCN)C(=O)N[C@H](CCCCN)C(N)=O [XMP.363P] | >50 µg/mL | NA (NA for IC50 means no evidence of decreased RAW cell growth at up to 50 μg/ml) |  |
| H-SKVKWLIQLFHKK-NH2 [Peptide 284] |  |  | Plate Assay (nmol), pure peptide activity ([2]; HPLC-purified peptide, nanomoles required to achieve a net 30 mm^2 zone (log titration curve)): 0.373 nmol; Plate Assay (nmol), crude peptide activity [2, 4]: 1.460 nmol |
| H-SKVKWLIQLFHKK-NH2 [XMP.284P] | 4.72 ± 0.08/ μg/ml and 3.57 ± 0.09 μg/ml |  |  |
| H-SVHVHISKSKVGWLIQLFHKKIESALRNK-NH2 [XMP.12] |  |  | C. albicans pmol/30 mm^2 zone [2]: >2099 pmol/30 mm^2 zone |
| H-VKWLIQ-NH2 [XMP.314] |  |  | C. albicans pmol/30 mm^2 zone [2]: >13,497 pmol/30 mm^2 zone |
| H-VKWLIQ-NH2 [compound 314] |  |  | Plate Assay (nmol), crude peptide activity [2, 4]: 13.497 nmol |
| H-VKWLIQL-NH2 [Peptide 307] |  |  | Plate Assay (nmol), crude peptide activity [2, 4]: >8.345 nmol |
| H-VKWLIQL-NH2 [XMP.307] |  |  | C. albicans pmol/30 mm^2 zone [2]: >8,345 pmol/30 mm^2 zone |
| H-VKWLIQLF-NH2 [XMP.301] |  |  | C. albicans pmol/30 mm^2 zone [2]: b (No detectable activity up to 5 μg/well) |
| H-VKWLIQLFH-NH2 [Peptide 296] |  |  | Plate Assay (nmol), crude peptide activity [2, 4]: >5.573 nmol |
| H-VKWLIQLFH-NH2 [XMP.296] |  |  | C. albicans pmol/30 mm^2 zone [2]: >5,573 pmol/30 mm^2 zone |
| H-VKWLIQLFHK-NH2 [Peptide 292] |  |  | Plate Assay (nmol), crude peptide activity [2, 4]: >4.063 nmol |
